This is an account of results in patent US11071488B2, “Method for determining the likelihood of torsades de pointes being induced” (ASSISTANCE PUBLIQUE—HOPITAUX DE PARIS, priority 2016, dated 2021).

Like-named read-outs stand apart in the source and are kept apart here.

Series [1] deals with T1, IKr channel (Homo sapiens, UniProt Q12809). The note with it: for double peaks (notches) three hours after taking sotalol: 80 mg sotalol.
Description: The QTcF, TAmp and TpTe were measured according to the same protocol as for example 1, before and three hours after administration of a single oral dose of sotalol at 80 mg.
The ΔQTcF, ΔTpTe and ΔTAmp were also calculated.
The target in the next series is IKr potassium channel (Homo sapiens, UniProt Q12809). The note with it: cited from earlier work.
IKr potassium channel, sequence (Q12809 whole entry): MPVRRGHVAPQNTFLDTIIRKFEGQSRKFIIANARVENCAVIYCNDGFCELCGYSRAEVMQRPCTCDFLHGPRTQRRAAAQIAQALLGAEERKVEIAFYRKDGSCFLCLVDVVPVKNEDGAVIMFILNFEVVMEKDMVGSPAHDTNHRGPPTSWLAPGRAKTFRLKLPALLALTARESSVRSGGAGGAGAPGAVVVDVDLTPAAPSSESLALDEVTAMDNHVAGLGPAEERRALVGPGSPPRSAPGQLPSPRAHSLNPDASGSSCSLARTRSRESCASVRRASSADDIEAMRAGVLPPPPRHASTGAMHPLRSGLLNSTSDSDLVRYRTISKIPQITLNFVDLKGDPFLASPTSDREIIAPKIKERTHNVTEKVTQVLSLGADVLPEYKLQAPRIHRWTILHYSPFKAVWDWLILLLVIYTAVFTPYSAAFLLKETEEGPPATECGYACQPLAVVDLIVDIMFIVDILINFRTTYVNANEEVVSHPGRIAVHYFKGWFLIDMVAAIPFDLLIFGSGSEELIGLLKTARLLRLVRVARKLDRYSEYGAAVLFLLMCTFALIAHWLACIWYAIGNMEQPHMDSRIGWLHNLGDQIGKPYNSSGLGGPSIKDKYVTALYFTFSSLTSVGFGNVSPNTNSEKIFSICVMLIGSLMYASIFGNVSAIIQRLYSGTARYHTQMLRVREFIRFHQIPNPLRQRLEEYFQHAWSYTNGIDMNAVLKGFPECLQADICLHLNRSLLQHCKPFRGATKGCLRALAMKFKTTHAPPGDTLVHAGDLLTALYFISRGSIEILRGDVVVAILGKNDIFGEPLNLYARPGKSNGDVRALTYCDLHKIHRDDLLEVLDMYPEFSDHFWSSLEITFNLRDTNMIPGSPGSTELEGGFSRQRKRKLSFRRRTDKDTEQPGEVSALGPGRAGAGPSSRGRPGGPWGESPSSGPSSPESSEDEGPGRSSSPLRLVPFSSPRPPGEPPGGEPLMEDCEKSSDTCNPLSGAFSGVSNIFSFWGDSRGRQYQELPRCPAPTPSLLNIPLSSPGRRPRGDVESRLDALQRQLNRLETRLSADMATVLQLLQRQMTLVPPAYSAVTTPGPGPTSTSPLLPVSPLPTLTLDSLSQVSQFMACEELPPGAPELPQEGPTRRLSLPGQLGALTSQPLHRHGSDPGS
In series [2] the target is T1, IKr channel. The series is described as follows: ECG changes three hours after a single oral dose of 80 mg sotalol (GENEREPOL cohort, Example 1). In kind it is in vivo. The arrangement: from tissue; host or cells: heart (ventricular myocardium) of living human volunteers; surface ECG read-out. Particulars: H3. The procedure:
The cohort of patients was that of the GENEREPOL study, and consisted of 995 volunteers in good health, from 18 to 60 years old, of European or North African origin. The objective of this study was to identify genetic predispositions linked to the inhibition of the IKr channel after administration of 80 mg sotalol, with a body mass index between 19 and 29 kg/m^2, informed consent having been received. […]
An intravenous catheter was inserted for taking blood samples. The ECG of the patients was then recorded using the Cardioplug device (Cardionics Inc®, Brussels, Belgium) connected to a laptop computer. […] Three hours after sotalol had been taken ([…]), the ECG was again recorded (in triplicate) after the subjects had remained lying on their back for 10 minutes and before lunch. […]
The QTcF, TpTe and TAmp and the presence of notches (double peak) in the T wave were quantified. […]
The quantitative analysis of the QTcF, TpTe and TAmp was carried out by two trained investigators, in order to limit the inter-evaluator variability.
TpTe was measured by the tangent method, in triplicate, on a representative beat (average representation of an ECG of 10 seconds) on the V3, V4 and V5 leads. […]
QTcF was measured by the tangent method on the DII lead for three consecutive beats and the average value of an evaluation in triplicate was retained. […]

T1 sequence (Q12809 whole entry): as above

For `C[C@]12CCC(=O)C=C1[C@@H]1C[C@@H]1[C@H]1[C@@H]3[C@@H]4C[C@@H]4[C@@]4(CCC(=O)O4)[C@@]3(C)CC[C@@H]12` [drospirenone], the “double peaks (notches) three hours after taking sotalol” value on IKr channel [1] (women taking drospirenone) was 25.8%.
For `CC(C)NCC(O)c1ccc(NS(C)(=O)=O)cc1` (stereo not drawn) [sotalol], the “risk of induction of torsades de pointes” value on IKr potassium channel (dose-dependent) was “up to 7 % of patients treated”. Further, on IKr potassium channel (sotalol at 80 mg), the “increase in QT/QTc” value is listed as “approximately 20 ms” and the “induction of an episode of torsade de pointes” value is given as “does not induce an episode of torsade de pointes”. Moreover, the “time of maximum concentration after oral intake” value on IKr potassium channel (taken orally) is reported as “approximately 3 hours”. Besides, the “double peaks (notches) three hours after taking sotalol” value at IKr channel [1] (women not taking an oral contraceptive) was determined as 13.4%. Also, the plasma sotalol concentration entry on IKr channel [1] (women taking drospirenone vs women with no contraception) is listed as “No difference”. Further, at IKr channel [2] (first (exploration) cohort, 40 subjects), the “subjects exhibiting a double peak (notch)” value was 8%. In addition, the “subjects exhibiting a double peak (notch)” value at IKr channel [2] (second (replication) cohort, 51 subjects) came out at 10%.
